Data taken from PubChem BioAssay AID1259334 (Broad Institute, 2017).
Activity calls are given as the source filed them. No stated cut-off is given here; in the data, active means AC50 below about 11 µM.

test: TNFa signaling inhibitors in B cell line, dose response, counter-screen (AID 1259334); settings: B cell line, TNFa signaling counterscreen reporter; at 0.0005 µM; active compounds read low;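 further: cells stimulated with TNFa after compound preincubation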

SMILES	max activity
CCN(CC(=O)Nc1ccc(NC(C)=O)cc1)C(=O)C1CCCN(C(=O)c2ccc(Cl)cc2)C1 (stereo not given)	-4.62% (inactive)

same assay, conditions: B cell line, TNFa signaling counterscreen reporter; at 0.0046 µM; active compounds read low

SMILES	max activity
NS(=O)(=O)c1cc2c(cc1C(F)(F)F)NC(Cc1ccccc1)NS2(=O)=O (stereo not given)	6.69% (inactive)
COc1cccc(S(=O)(=O)N(C)C[C@H]2OCc3ccccc3-c3c(n(C)c4ccccc34)C(=O)N([C@@H](C)CO)C[C@H]2C)c1	10.1% (inactive)
C[C@H]1CCCCO[C@H](CN(C)Cc2ccc(C(F)(F)F)cc2)[C@@H](C)CN([C@@H](C)CO)C(=O)c2cc(NC(=O)Nc3cccc4ccccc34)ccc2O1	7.77% (inactive)
CCN1C(=O)C(CC(=O)Nc2ccc(OC)cc2)N(CCc2ccc(F)cc2)C1=S (stereo not given)	4.9% (inactive)

same assay, conditions: B cell line, TNFa signaling counterscreen reporter; at 0.0135 µM; active compounds read low

SMILES	max activity
CCc1cc2c(COC(=O)c3cc(S(=O)(=O)N4CCOCC4)ccc3F)cc(=O)oc2cc1O	15.8% (inactive)
Cc1ccccc1-c1ccc(C2[C@@H]3CN(C(=O)Nc4cccc(F)c4)C[C@H]2N3)cc1 (stereo not given in full)	-14.6% (inactive)
C[C@@H]1CN([C@@H](C)CO)C(=O)Cc2cc(NS(=O)(=O)c3ccccc3)ccc2O[C@H]1CN(C)Cc1ccc(Cl)c(Cl)c1	16% (inactive)
N#C[C@H]1[C@H](c2ccc(C#CC3CCCCC3)cc2)[C@H](CO)N1C(=O)Nc1ccc(F)cc1	9.39% (inactive)
O=C(c1ccncc1)N1C[C@@H]2N[C@H](C1)C2c1ccc(/C=C/c2ccccc2)cc1 (stereo not given in full)	8.12% (inactive)
CC(=O)Nc1nc2nc(-c3ccccc3)cc(-c3ccccc3)n2n1	11.6% (inactive)
C[C@@H]1CN([C@@H](C)CO)C(=O)c2c(c3ccccc3n2C)-c2ccccc2CO[C@H]1CN(C)Cc1cccc(C(=O)Nc2ccccc2N)c1	9.96% (inactive)

same assay, conditions: B cell line, TNFa signaling counterscreen reporter; at 0.042 µM; active compounds read low

SMILES	max activity
COc1ccc(CN2CC3(CN(S(=O)(=O)c4ccc(C)cc4)C3)c3c([nH]c4cc(OC)ccc34)[C@H]2CO)cc1	14.8% (inactive)
CC1=NNC(=O)C1Br (stereo not given)	52.7% (inactive)
COc1ccc(S(=O)(=O)N(C)C[C@H]2Oc3ccc(NC(=O)Nc4ccc(C(F)(F)F)cc4)cc3C(=O)N([C@@H](C)CO)C[C@H]2C)cc1	15.2% (inactive)

same assay, conditions: B cell line, TNFa signaling counterscreen reporter; at 0.11 µM; active compounds read low

SMILES	max activity
C[C@@H]1CN([C@H](C)CO)C(=O)c2c(c3ccccc3n2C)-c2ccccc2CO[C@@H]1CN(C)S(=O)(=O)c1ccccc1C#N	17.1% (inactive)

same assay, conditions: B cell line, TNFa signaling counterscreen reporter; at 0.12 µM; active compounds read low

SMILES	max activity
C[C@@H]1CCCCO[C@@H](CN(C)CC2CCCCC2)[C@@H](C)CN([C@@H](C)CO)C(=O)c2cc(NC(=O)Nc3ccc(C(F)(F)F)cc3)ccc2O1	11.4% (inactive)
C[C@]12CC[C@H](O)C[C@H]1CC[C@@H]1[C@@H]2CC[C@]2(C)[C@@H](c3ccc(=O)oc3)CC[C@]12O	7.82% (inactive)

same assay, conditions: B cell line, TNFa signaling counterscreen reporter; at 0.135 µM; active compounds read low

SMILES	max activity
N#C[C@H]1[C@H](c2ccc(C#CC3CCCCC3)cc2)[C@@H](CO)N1C(=O)Nc1ccc(F)cc1	9.41% (inactive)

same assay, conditions: B cell line, TNFa signaling counterscreen reporter; at 0.38 µM; active compounds read low

SMILES	max activity
N#Cc1cccc(-c2ccc([C@@H]3[C@H](CO)N4CCCCN(C(=O)Nc5cccc(F)c5)C[C@@H]34)cc2)c1	-15% (inactive)
C[C@@H]1CCCCO[C@@H](CN(C)C(=O)C2CCCCC2)[C@@H](C)CN([C@H](C)CO)C(=O)c2cc(NS(=O)(=O)c3ccccc3)ccc2O1	15.5% (inactive)
C[C@@H]1CN([C@@H](C)CO)C(=O)c2c(c3ccccc3n2C)-c2ccccc2CO[C@@H]1CN(C)Cc1cccc(C(F)(F)F)c1	-7.66% (inactive)
c1ccc(CCSc2nccn2-c2ccccc2)cc1	38% (inactive)
CC(=O)c1cc(-c2ccccc2)n(CC(=O)NCc2cccs2)c1C	12.3% (inactive)
CC(C)NC(=O)N1CC(=O)N2[C@H](CO)[C@@H](c3ccc(/C=C/c4ccccc4)cc3)[C@H]2C1	-8.8% (inactive)
C[C@H]1CN([C@@H](C)CO)C(=O)c2ccccc2-c2ccccc2CO[C@H]1CN(C)C(=O)[C@@H](Cc1ccccc1)N(C)C	-6.07% (inactive)
CC(C)(C)c1cc(/C=C(\C#N)C(N)=S)cc(C(C)(C)C)c1O	-4.66% (inactive)
Oc1cc(O)cc(/C=C/c2ccc(O)c(O)c2)c1	7.46% (inactive)

same assay, conditions: B cell line, TNFa signaling counterscreen reporter; at 1.1 µM; active compounds read low

SMILES	max activity
C[C@@H]1CCCCO[C@@H](CN(C)S(=O)(=O)c2ccc(Cl)cc2)[C@H](C)CN([C@H](C)CO)C(=O)c2cc(NC(=O)Nc3ccc(C(F)(F)F)cc3)ccc2O1	17% (inactive)
Cc1ccc2nc(-c3cc(-c4ccccc4)no3)cn2c1	49.4% (inactive)
C[C@H](CO)N1C[C@H](C)[C@H](CN(C)CC2CCCCC2)Oc2ccc(NC(=O)Nc3ccc(C(F)(F)F)cc3)cc2C1=O	8.34% (inactive)
COc1ccc2c3c([nH]c2c1)[C@H](CO)N(C(=O)Nc1cccc(F)c1)CC31CCN(S(=O)(=O)c2cccc(C)c2)CC1	21.6% (inactive)
CCCCC1C(=O)NC(=S)N(C)C1=O (stereo not given)	-7.17% (inactive)
N#C[C@@H]1[C@@H](c2ccccc2-c2ccccc2)[C@@H](CO)N1C(=O)NC1CCCC1	20.9% (inactive)
N=C(N)c1ccc(OCCCCCOc2ccc(C(=N)N)cc2)cc1	17.9% (inactive)
COc1ccc(-c2cnc3c(c2)C(=O)N([C@H](C)CO)C[C@@H](C)[C@@H](CN(C)C(=O)Nc2c(C)noc2C)O3)cc1	22.7% (inactive)
COc1ccc2c(c1)c1ncn(Cc3ccccn3)c(=O)c1n2C	-8.21% (inactive)
COc1ccc(CN2CC3(CN(C(=O)Cc4ccccc4)C3)c3c([nH]c4cc(OC)ccc34)[C@H]2CO)cc1	10.3% (inactive)
COc1cccc(S(=O)(=O)N(C)C[C@@H]2OCc3ccccc3-c3c(n(C)c4ccccc34)C(=O)N([C@H](C)CO)C[C@@H]2C)c1	16.8% (inactive)
O=C(NCc1ccccn1)C1CCCN(S(=O)(=O)c2ccccc2)C1 (stereo not given)	18.3% (inactive)
O=C1C(Br)=C(c2ccccc2)C(c2ccccc2)=C1c1ccccc1	-5.75% (inactive)
CC(C)(C)n1cc(C(=O)c2ccc3ccccc3c2O)cn1	-24.4% (inactive)

same assay, conditions: B cell line, TNFa signaling counterscreen reporter; at 1.2 µM; active compounds read low

SMILES	max activity
N#C[C@@H]1[C@@H](c2ccccc2-c2ccc(F)cc2)[C@H](CO)N1C(=O)NC1CCCCC1	18.3% (inactive)

same assay, conditions: B cell line, TNFa signaling counterscreen reporter; at 3 µM; active compounds read low

SMILES	max activity
C[C@H]1CN([C@@H](C)CO)C(=O)c2c(c3ccccc3n2C)-c2ccccc2CO[C@@H]1CN(C)S(=O)(=O)c1ccc([N+](=O)[O-])cc1	-14.8% (inactive)

same assay, conditions: B cell line, TNFa signaling counterscreen reporter; at 3.5 µM; active compounds read low

SMILES	max activity
CC12CC[C@H]3[C@@H](CCC4(O)C[C@H](O)CCC34/C=N/NC(=O)Cc3ccccc3)C1(O)CCC2C1=CC(=O)OC1 (stereo not given in full)	5.28% (inactive)
Cc1ccc(S(=O)(=O)N2CCCC2CNC(=O)c2ccc3c(c2)OCO3)cc1 (stereo not given)	-23.3% (inactive)
C[C@@H]1CN([C@H](C)CO)C(=O)c2cc(NC(=O)Nc3cccc4ccccc34)ccc2O[C@@H](C)CCCCO[C@H]1CN(C)Cc1ccc(C(F)(F)F)cc1	-8.53% (inactive)
CCSc1ccc(-c2cc(NC=O)c3ncc(-c4cccc(C(=O)N(C)C)c4)n3c2)cc1	45.8% (inactive)
Cc1ccc(-c2cc(C(=O)N3CCCC(C(F)(F)F)C3)c3ccccc3n2)o1 (stereo not given)	21.4% (inactive)
COC(=O)c1ccc2c(=O)[nH]c(COC(=O)c3c(-c4ccccc4)noc3C)nc2c1	8.26% (inactive)
COc1ccc(S(=O)(=O)Nc2ccc3c(c2)C(=O)N([C@@H](C)CO)C[C@@H](C)[C@@H](CN(C)Cc2ccc(C(F)(F)F)cc2)OCCCC[C@H](C)O3)cc1	-16.5% (inactive)
N#C[C@H]1[C@H](c2ccc(C#Cc3ccccc3F)cc2)[C@@H](CO)N1C(=O)C1CC1	-17.4% (inactive)
O=C(C1CCC1)N1CCc2cc(S(=O)(=O)N3CCCCC3)ccc21	-31.7% (inactive)
N#C[C@@H]1[C@H](c2ccc(C#CC3CCCC3)cc2)[C@H](CO)N1C(=O)Cc1ccccn1	-8.57% (inactive)
N#C[C@H]1[C@@H](c2ccc(C#CC3CCCCC3)cc2)[C@H](CO)N1C(=O)Nc1ccc(F)cc1	-11.6% (inactive)
O=C1C(=NO)CCc2ccccc21	35.6% (inactive)
COCCn1c(C)cc(C(=O)COC(=O)c2ccc(Br)o2)c1C	-9.22% (inactive)
CC(=O)NCCCC(=O)NC(CCC(=O)OCc1ccccc1)C(=O)OCc1ccccc1 (stereo not given)	-20% (inactive)
CCCC(C)Sc1nc2c([nH]1)c(=S)n(C)c(=O)n2C (stereo not given)	58.9% (inactive)

same assay, conditions: B cell line, TNFa signaling counterscreen reporter; at 10 µM; active compounds read low

SMILES	max activity
CCc1cnc(N2[C@H](C#N)[C@@H](c3ccccc3C3=CCCC3)[C@@H]2CO)s1	9.74% (inactive)
CN1C(=O)c2cc(NC(=O)c3cccc(Cl)c3)ccc2OC[C@@H]2O[C@@H](CC(=O)NC3CCCCC3)CC[C@H]21	-5.27% (inactive)
Cc1noc(C)c1S(=O)(=O)N(C)C[C@H]1OCc2ccccc2-c2c(n(C)c3ccccc23)C(=O)N([C@H](C)CO)C[C@H]1C	-12.3% (inactive)
OC(CCN1CCCCC1)c1ccc(-c2ccccc2)cc1 (stereo not given)	32.8% (inactive)
C=C1C(=O)OC2C=C(CO)CCC=C(CO)CC(OC(=O)C(C)C)C12 (stereo not given)	28.9% (inactive)
CCc1cnc(N2[C@H](C#N)[C@@H](c3ccc(C#CC(C)C)cc3)[C@H]2CO)s1	16.5% (inactive)
CCOC(=O)c1cc2c(ccn2C)n1Cc1ccc(C#N)cc1	20.1% (inactive)
C[C@@H]1CN([C@H](C)CO)C(=O)c2c(c3ccccc3n2C)-c2ccccc2CO[C@H]1CN(C)C(=O)Nc1ccccc1C(F)(F)F	-6.36% (inactive)
CCCCc1nc2ccccc2[nH]1	6.54% (inactive)
c1cncc(C2=NCCC2)c1	38% (inactive)

same assay, conditions: B cell line, TNFa signaling counterscreen reporter; at 11 µM; active compounds read low

SMILES	max activity
C[C@@H]1CN([C@H](C)CO)C(=O)Cc2cc(NC(=O)Cc3cn(C)c4ccccc34)ccc2O[C@H]1CN(C)Cc1ccc(C(F)(F)F)cc1	-10.7% (inactive)
